This experiment concerns the target SARS-CoV-2 3CLpro (Severe acute respiratory syndrome coronavirus 2, UniProt P0DTD1). Briefly: biochemical. Format: biochemical. On the set-up: Replicate_1 / Replicate_2 / mean / mean (LOPAC_screen_w_protease): unit not given here. The following applies: for inhibition at 5 µM: 4 h; for mean (LOPAC screen with protease) / Replicate_1 (LOPAC screen with protease) / Replicate_2 (LOPAC screen with protease): primary screen at 5 µM.

[1] abbreviates: sheet LOPAC_screen_w_protease, primary screen of LOPAC1280 at 5 µM with protease, mean of the two replicates.
[2] abbreviates: sheet LOPAC_screen_w_protease, primary screen of LOPAC1280 at 5 µM with protease, replicate 1.
Setting [3] is: sheet LOPAC_screen_w_protease, primary screen of LOPAC1280 at 5 µM with protease, replicate 2.
Where [4] appears, read: sheet LOPAC_screen_w_protease, primary screen with protease, 5 µM, mean of two replicates.
[5] abbreviates: sheet LOPAC_screen_w_protease, primary screen with protease, 5 µM, replicate 1.
[6] abbreviates: sheet LOPAC_screen_w_protease, primary screen with protease, 5 µM, replicate 2.
Setting [7] is: LOPAC1280 primary screen with protease, 5 µM compound, mean of the two replicates.
Where [8] appears, read: LOPAC1280 primary screen with protease, 5 µM compound, replicate 1.
Where [9] appears, read: LOPAC1280 primary screen with protease, 5 µM compound, replicate 2.
Where [10] appears, read: sheet LOPAC_screen_w_protease, primary screen with protease, 5 µM, mean of two replicates, read-out: mean.
[11] abbreviates: sheet LOPAC_screen_w_protease, primary screen with protease, 5 µM, replicate 1, read-out: Replicate_1.
Where [12] appears, read: sheet LOPAC_screen_w_protease, primary screen with protease, 5 µM, replicate 2, read-out: Replicate_2.
Setting [13] is: sheet LOPAC_screen_w_protease, primary screen with protease, mean of two replicates.
[14] abbreviates: sheet LOPAC_screen_w_protease, primary screen with protease, replicate 1.
Setting [15] is: sheet LOPAC_screen_w_protease, primary screen with protease, replicate 2.
Where [16] appears, read: LOPAC1280 primary screen with protease, 5 µM compound, mean of two replicates.
The mark [17] stands for this setting: LOPAC1280 primary screen with protease, 5 µM compound, replicate 1, read-out: Replicate_1 (LOPAC_screen_w_protease).
The mark [18] stands for this setting: LOPAC1280 primary screen with protease, 5 µM compound, replicate 2, read-out: Replicate_2 (LOPAC_screen_w_protease).
[19] abbreviates: sheet LOPAC_screen_w_protease, LOPAC1280 primary screen with protease, 5 µM compound, mean of the two replicates.
Setting [20] is: sheet LOPAC_screen_w_protease, LOPAC1280 primary screen with protease, 5 µM compound, replicate 1.
Where [21] appears, read: sheet LOPAC_screen_w_protease, LOPAC1280 primary screen with protease, 5 µM compound, replicate 2.
[22] abbreviates: sheet LOPAC_screen_w_protease, mean of two replicates.
Where [23] appears, read: sheet LOPAC_screen_w_protease, replicate 1.
The mark [24] stands for this setting: sheet LOPAC_screen_w_protease, replicate 2.

Structures can show the parent of a compound that is named as a salt. Where two headings read alike, the source gives them in different places.

In the case of `NC(=O)CC[C@H](N)C(=O)O` [L-Glutamine], the inhibition at 5 µM is 0.871% (sheet LOPAC_screen_w_protease, LOPAC1280 primary screen at 5 µM, with protease, mean of the two replicates, read-out: mean); 2.13% (sheet LOPAC_screen_w_protease, LOPAC1280 primary screen at 5 µM, with protease, replicate 1, read-out: Replicate_1); -0.384% (sheet LOPAC_screen_w_protease, LOPAC1280 primary screen at 5 µM, with protease, replicate 2, read-out: Replicate_2).
As for `NNC(=O)c1ccc(O)cc1` [4-Hydroxybenzhydrazide], the mean (sheet LOPAC_screen_w_protease, primary screen with protease, compound at 5 µM, mean of two replicates) amounted to 2.583. Also, the Replicate_1 (sheet LOPAC_screen_w_protease, primary screen with protease, compound at 5 µM, replicate 1) was 1.695. Further, where the note is “sheet LOPAC_screen_w_protease, primary screen with protease, compound at 5 µM, replicate 2”, the Replicate_2 came to 3.47.
`COC(=O)[C@@H](N)CCCN=C(N)N[N+](=O)[O-].Cl`: the mean under setting [1] was determined as 3.268. The Replicate_1 under setting [2] was found to be 2.366. The compound also registered a Replicate_2 under setting [3] of 4.171.
Compound `Cc1c(C)c2c(c(C)c1O)CCC(C)(CN1CCN(c3cc(N4CCCC4)nc(N4CCCC4)n3)CC1)O2.Cl.Cl` (centres unmarked) [U-83836 dihydrochloride] showed a mean under setting [4] of 0.07046. Moreover, the Replicate_1 under setting [5] is -0.1864. The same compound displayed a Replicate_2 under setting [6] of 0.3273.
As for `CCc1cc(Cl)c(O)c(C(=O)NC[C@@H]2CCCN2CC)c1OC.Cl` [S-(-)-Eticlopride hydrochloride], under setting [7], the “mean (LOPAC_screen_w_protease)” value turned out to be 2.005. In addition, under setting [8], the “Replicate_1 (LOPAC_screen_w_protease)” value came out at 2.376. The “Replicate_2 (LOPAC_screen_w_protease)” value under setting [9] is given as 1.635.
With `Nc1ccncc1` [4-Aminopyridine], the inhibition at 5 µM under setting [10] is -0.189%, the inhibition at 5 µM under setting [11] was determined as 0.392% and the inhibition at 5 µM under setting [12] is -0.771%.
The compound `CC(=O)[C@H]1CC[C@H]2[C@@H]3CC[C@H]4C[C@H](O)CC[C@]4(C)[C@H]3C(=O)C[C@]12C` [5alpha-Pregnan-3alpha-ol-11,20-dione] had a mean under setting [13] of 2.341. Also, under setting [14], the Replicate_1 is listed as 0.8983. Under setting [15], this compound came in with a Replicate_2 of 3.784.
As to `CC(C)Cn1c(=O)n(C)c(=O)c2[nH]cnc21` [3-Isobutyl-1-methylxanthine], the “mean (LOPAC_screen_w_protease)” value under setting [7] was 2.03. Further, the “Replicate_1 (LOPAC_screen_w_protease)” value under setting [8] is recorded as -0.07674. In addition, under setting [9], the “Replicate_2 (LOPAC_screen_w_protease)” value amounted to 4.138.
Compound `Nc1nc(SCc2ccc([N+](=O)[O-])cc2)c2ncn([C@@H]3O[C@H](CO)[C@@H](O)[C@H]3O)c2n1` [S-(4-Nitrobenzyl)-6-thioguanosine] showed a mean under setting [4] of -0.2707. In addition, the Replicate_1 under setting [5] worked out at 0.3471. The compound also returned a Replicate_2 under setting [6] of -0.8885.
On to `CCOC(=O)C1=C(C)NC(=S)NC1c1cccc(O)c1` (centres unmarked) [Monastrol], for which the inhibition at 5 µM came out at 6.04% (sheet LOPAC_screen_w_protease, LOPAC1280 primary screen with protease, 5 µM compound, mean of the two replicates, read-out: mean); 5.54% (sheet LOPAC_screen_w_protease, LOPAC1280 primary screen with protease, 5 µM compound, replicate 1, read-out: Replicate_1); 6.55% (sheet LOPAC_screen_w_protease, LOPAC1280 primary screen with protease, 5 µM compound, replicate 2, read-out: Replicate_2).
In the case of `Nc1nc(Cl)nc2c1ncn2[C@@H]1O[C@H](COP(=O)(O)OP(=O)(O)OP(=O)(O)O)C(O)C1O` (stereo in doubt), the “mean (LOPAC_screen_w_protease)” value under setting [16] came out at 1.575. Further, the “Replicate_1 (LOPAC_screen_w_protease)” value under setting [8] is given as 3.171. Also, under setting [9], the “Replicate_2 (LOPAC_screen_w_protease)” value is reported as -0.0216.
As to `CCN(CC)CCCCCCCCOC(=O)c1cc(OC)c(OC)c(OC)c1.Cl` [TMB-8 hydrochloride], the mean under setting [4] was -0.545. This compound also displayed a Replicate_1 under setting [5] of 0.4949. The same compound gave a Replicate_2 under setting [6] of -1.585.
For the compound `COc1ccc(OC)c(C(O)C(C)N)c1` (centres unmarked) [Methoxamine hydrochloride], the inhibition at 5 µM (sheet LOPAC_screen_w_protease, primary screen of LOPAC1280 at 5 µM with protease, mean of the two replicates, read-out: mean) is 3.32%; the inhibition at 5 µM (sheet LOPAC_screen_w_protease, primary screen of LOPAC1280 at 5 µM with protease, replicate 1, read-out: Replicate_1) was 2.74%; the inhibition at 5 µM (sheet LOPAC_screen_w_protease, primary screen of LOPAC1280 at 5 µM with protease, replicate 2, read-out: Replicate_2) came out at 3.89%.
On to `c1ccc2c(c1)OCC(C1=NCCN1)O2` (centres unmarked) [Idazoxan hydrochloride], for which the inhibition at 5 µM stood at 1.08% (read-out: Replicate_1 (LOPAC_screen_w_protease)) and 2.66% (read-out: Replicate_2 (LOPAC_screen_w_protease)).
Under setting [13], `O=c1[nH]c2cc(Cl)ccc2c(O)c1-c1cccc(Oc2ccccc2)c1` [L-701,324] displayed a mean of 2.464. The compound further registered a Replicate_1 under setting [14] of 2.862. Under setting [15], the Replicate_2 is recorded as 2.066.
For `OC[C@H]1O[C@@H](n2cnc3c(Nc4ccccc4)ncnc32)[C@H](O)[C@@H]1O` [N6-Phenyladenosine], the inhibition at 5 µM is 2.83% under setting [17] and 0.0632% under setting [18]. Further, the “mean (LOPAC_screen_w_protease)” value under setting [16] came to 1.447.
Regarding `CN(C)CCOC(C)(c1ccccc1)c1ccccn1` (centres unmarked) [Doxylamine succinate], the inhibition at 5 µM (sheet LOPAC_screen_w_protease, LOPAC1280 at 5 µM, mean of two replicates, read-out: mean) amounted to 1.3%; the inhibition at 5 µM (sheet LOPAC_screen_w_protease, LOPAC1280 at 5 µM, replicate 1, read-out: Replicate_1) was 1.58%; the inhibition at 5 µM (sheet LOPAC_screen_w_protease, LOPAC1280 at 5 µM, replicate 2, read-out: Replicate_2) worked out at 1.01%.
On to `O=C(O)/C=C1\CCCc2ccccc2C1O` (centres unmarked) [NCS-382], for which the mean under setting [19] is on record as 5.8931. The Replicate_1 under setting [20] was 5.187. The compound further had a Replicate_2 under setting [21] of 6.599.
Regarding `C1COC(NC(C2CC2)C2CC2)=N1` [Rilmenidine hemifumarate], the inhibition at 5 µM runs as follows: under setting [17], 4.65%; under setting [18], -0.41%. Further, the “mean (LOPAC_screen_w_protease)” value under setting [7] came out at 2.121.
`COc1ccccc1NC(=O)Nc1nc(-c2cccnc2)nc2ccccc12` [VUF 5574] returned a mean under setting [13] of 2.164. Under setting [14], this compound returned a Replicate_1 of 1.496. Moreover, under setting [15], the Replicate_2 is on record as 2.8319.
Regarding `CC(=O)NCCc1ccc(O)c(O)c1.O` [N-Acetyldopamine monohydrate], the “mean (LOPAC screen with protease)” value under setting [22] is recorded as 81.0563. In addition, the “Replicate_1 (LOPAC screen with protease)” value under setting [23] was found to be 83.9163. Also, under setting [24], the “Replicate_2 (LOPAC screen with protease)” value amounted to 78.1962.
On to `COc1ccccc1N1CCN(CCCNc2cc(=O)n(C)c(=O)n2C)CC1` [Urapidil hydrochloride], for which the inhibition at 5 µM was -0.372% under setting [10], 0.127% under setting [11] and -0.871% under setting [12].
Consider `CC(=O)OCC1=C(C(=O)[O-])N2C(=O)[C@@H](NC(=O)CCC[C@@H](N)C(=O)[O-])[C@H]2SC1.[Zn+2]` [Cephalosporin C zinc salt], for which the mean under setting [4] is listed as 0.2554. For the same compound, the Replicate_1 under setting [5] is recorded as 0.7755. Besides, the Replicate_2 under setting [6] is -0.2647.
Regarding `CCCCCCCC/C=C\CCCCCCCC(=O)NCCO` [N-Oleoylethanolamine], under setting [1], the mean was 3.1732. The compound further returned a Replicate_1 under setting [2] of 4.947. Under setting [3], this compound yielded a Replicate_2 of 1.4.
In the case of `CN1CCC(=C2c3ccccc3C=Cc3ccccc32)CC1` [Cyproheptadine hydrochloride], the inhibition at 5 µM under setting [17] stood at 4.15% and the inhibition at 5 µM under setting [18] worked out at 0.0977%. The “mean (LOPAC_screen_w_protease)” value under setting [7] came out at 2.126.
Under “sheet LOPAC_screen_w_protease, LOPAC1280 primary screen at 5 µM, with protease, mean of two replicates”, `NC(=O)COc1c(F)cc(SCCNS(=O)(=O)c2ccccc2)cc1F` showed a mean of -1.413. For the same compound, the Replicate_1 (sheet LOPAC_screen_w_protease, LOPAC1280 primary screen at 5 µM, with protease, replicate 1) is reported as -1.082. In addition, the Replicate_2 (sheet LOPAC_screen_w_protease, LOPAC1280 primary screen at 5 µM, with protease, replicate 2) is -1.744.
On to `N.N.N.Nc1ncnc2c1ncn2C1OC(COP(=O)(O)OP(=O)(O)OP(=O)(O)OP(=O)(O)OC[C@H]2O[C@@H](n3cnc4c(N)ncnc43)C(O)C2O)[C@@H](O)C1O` (stereo in doubt), for which, under setting [7], the “mean (LOPAC_screen_w_protease)” value stood at 2.093. Besides, the “Replicate_1 (LOPAC_screen_w_protease)” value under setting [8] turned out to be 3.71. The “Replicate_2 (LOPAC_screen_w_protease)” value under setting [9] worked out at 0.4753.
Consider `N[C@@H](COP(=O)(O)O)C(=O)O` [O-Phospho-L-serine], for which the mean under setting [19] amounted to 5.279. Also, under setting [20], the Replicate_1 amounted to 3.193. The compound also showed a Replicate_2 under setting [21] of 7.365.
`Br.Cc1cccc(C2CN(C)CCc3c2cc(O)c(O)c3Cl)c1` (centres unmarked) [SKF 83959 hydrobromide]: the “mean (LOPAC screen with protease)” value under setting [22] was found to be 8.7281. Also, the “Replicate_1 (LOPAC screen with protease)” value under setting [23] came to 9.112. Moreover, the “Replicate_2 (LOPAC screen with protease)” value under setting [24] stood at 8.344.
Under setting [4], `Cl.NCCCCC(=O)O` [5-Aminovaleric acid hydrochloride] had a mean of 0.3592. Further, under setting [5], the Replicate_1 worked out at 0.7789. Also, under setting [6], the Replicate_2 was -0.06046.

Source of the values: PMC7587356, “High-Throughput Screening for Inhibitors of the SARS-CoV-2 Protease Using a FRET-Biosensor” (Molecules, 2020).
